Results published in paper PMC5352362, “Molecular and functional evaluation of a novel HIF inhibitor, benzopyranyl 1,2,3-triazole compound” (Oncotarget, 2016).

Key:
HIF-1α [1] = molecular target: T1, HIF-1α (Homo sapiens, UniProt Q16665); experiment: Immunofluorescence of nuclear HIF-1α in A549 cells; format: cell-based; conditions: 1–100 nM, hypoxia 16 h
Experimental: To further confirm the effects of Compound 12 on the inhibition of HIF-1α protein expression, we performed an immunofluorescent assay in A549 cells. Cells were treated with Compound 12 (1–100 nM) for 16 h under hypoxic conditions, and were then fixed with paraformaldehyde. Fixed cells were processed to allow immunostaining of HIF-1α by a HIF-1α antibody.
Figure 4 Compound 12 increased hydroxylation and proteasome-mediated degradation of HIF-1α (A) A549 cells were treated with Compound 12 (at concentrations of 0 nM, 1 nM, 10 nM, and 100 nM) for 16 h. […] Cells were immediately treated with cycloheximide (CHX, 100 μg/mL) for the time indicated, and HIF-1α protein levels were determined by western blotting. β-actin was used as an internal control. Half-life (t1/2) of HIF-1α protein was determined using relative expression levels of HIF-1α. […] The expression levels of HIF-1α, hydroxylated (OH)-HIF-1α at P402 or P564, and PHD2 were determined via western blotting using specific antibodies. […] Relative levels of ubiquitinated HIF-1α were quantified and graphed.
Cells were cultured on coverslips in four-well plates at a density of 1 × 10^5 cells/well, and allowed to attach for 24 h. […] Coverslips were mounted on slides, and cells were observed using fluorescence microscopy at 400X magnification (Carl Zeiss, AG, Germany).

HIF-1α [2] = molecular target: T1, HIF-1α; experiment: Western blot of HIF-1α protein in hypoxic HEK-293 cells; format: cell-based; conditions: HEK293, 1 nM, hypoxia 16 h, read-out: downregulation of HIF-1α protein expression
Experimental: (§1) (B, C) After HEK-293 cells (B) and A549 cells (C) were treated with Compound 12 (at concentrations of 0 nM, 0.1 nM, 1 nM, 10 nM, 100 nM, and 1000 nM) under hypoxic conditions for 16 h, expression of HIF-1α was determined by western blot analysis and then graphed. (D, E) Half maximal inhibitory concentration (IC50) values were calculated using GraphPad Prism software, using the quantified HIF-1α levels determined in B and C.
(§2) HEK-293 cells and A549 cells were treated with Compound 12, at 0.1–1000 nM concentrations, under hypoxic conditions for 16 h.
Proteins extracted from cells using PRO-PREP (iNtRon Biotech, South Korea) were separated by SDS-PAGE and transferred to a nitrocellulose membrane (Whatman, Maidstone, UK). Membranes were blocked with 5% skim milk in Tris-buffered saline (TBS) containing 0.1% Tween-20 for 30 min at room temperature (RT). After blocking, membranes were incubated with specific primary antibodies overnight at 4°C, followed by incubation with horseradish peroxidase-conjugated mouse- or rabbit-IgG for 1 h at RT. Antibody binding was detected using an enhanced chemiluminescence (ECL) kit (BioRad, Hercules, CA) according to the manufacturer's instructions. […]

HIF-1α [3] = molecular target: T1, HIF-1α; experiment: Western blot of HIF-1α protein in hypoxic A549 cells; format: cell-based; conditions: hypoxia 16 h
Experimental: Next, we evaluated the inhibitory effects of the nine aforementioned test compounds on HIF-1α protein accumulation by western blot analyses in A549 cells experiencing hypoxic conditions.
Treatment was under hypoxic conditions for 16 h. Cells were then lysed for western blot analysis, which was conduced with antibodies against HIF-1α and β-actin. Expression levels were quantified by ImageJ (NIH, Bethesda, MO, USA) and graphed. **P < 0.01 versus 1% O2 DMSO (D)-treated control group.
as §1, §2
Proteins extracted from cells using PRO-PREP (iNtRon Biotech, South Korea) were separated by SDS-PAGE and transferred to a nitrocellulose membrane (Whatman, Maidstone, UK). Membranes were blocked with 5% skim milk in Tris-buffered saline (TBS) containing 0.1% Tween-20 for 30 min at room temperature (RT). After blocking, membranes were incubated with specific primary antibodies overnight at 4°C, followed by incubation with horseradish peroxidase-conjugated mouse- or rabbit-IgG for 1 h at RT. Antibody binding was detected using an enhanced chemiluminescence (ECL) kit (BioRad, Hercules, CA) according to the manufacturer's instructions. Primary antibodies against the following factors were used: HIF-1α (BD Biosciences, San Diego, CA, USA), HIF-1β (Cell Signaling Technology, Danvers, MA, USA), β-actin (Santa Cruz Biotechnology, Santa Cruz, CA, USA), hydroxylated-HIF-1α (P564) (Cell Signaling Technology, Danvers, MA, USA), and PHD2 (Abcam, Cambridge, UK).

[4] = tested on: angiogenesis (hemoglobin content of Matrigel plug); experiment: Matrigel plug assay in C57BL/6J mice; format: in vivo, mouse; conditions: Compound 12 100 nM, gefitinib 5 μM in Matrigel, 10 days
Experimental: HIF-1α is synthesized by growth factor signaling pathways, such as those of EGFR [30] [31]. Inhibition of HIF-1α in its pathways of synthesis, as well as in its pathway of degradation, would seem to make for a more efficient anti-cancer/anti-angiogenesis treatment. To confirm this, we performed a tumor allogaft experiment using Lewis lung carcinoma (LLC) cells. 1 × 10^6 LLC cells were inoculated into the mouse flank subcutaneously (s.c.), and treatment with Compound 12 (5 mg/kg) and/or gefitinib (an EGFR inhibitor, 50 mg/kg), via intraperitoneal (i.p.) administration, was performed every other day for 20 days. […] To confirm the effect of Compound 12 on angiogenesis, we analyzed angiogenesis using the Matrigel plug assay. […]
Figure 6 Compound 12 suppressed allogaft tumor growth and enhanced the effects of a chemotherapeutic agent (A, B) Lewis lung carcinoma cells were inoculated into flanks of C57BL/6J mice (Day 0). […] Tumor size (A) and tumor weight (B) were measured three times a week and on the final day, respectively. […] The content of hemoglobin was quantified and graphed. (D) Tumor tissue sections (10 μm) indicated were stained with H&E and immunostained with anti-CD31 antibody to detect microvessel density; CD31+ cell percentages were then calculated and graphed. […] (F) Images and quantitative comparisons (graph) for Ki67+ proliferating cells in tumor center regions are shown. […]

HUVECs = experiment: Matrigel tube formation assay, VEGF-induced; format: cell-based, human; conditions: VEGF 20 ng/mL, 24 h

T1 sequence (Q16665 whole entry): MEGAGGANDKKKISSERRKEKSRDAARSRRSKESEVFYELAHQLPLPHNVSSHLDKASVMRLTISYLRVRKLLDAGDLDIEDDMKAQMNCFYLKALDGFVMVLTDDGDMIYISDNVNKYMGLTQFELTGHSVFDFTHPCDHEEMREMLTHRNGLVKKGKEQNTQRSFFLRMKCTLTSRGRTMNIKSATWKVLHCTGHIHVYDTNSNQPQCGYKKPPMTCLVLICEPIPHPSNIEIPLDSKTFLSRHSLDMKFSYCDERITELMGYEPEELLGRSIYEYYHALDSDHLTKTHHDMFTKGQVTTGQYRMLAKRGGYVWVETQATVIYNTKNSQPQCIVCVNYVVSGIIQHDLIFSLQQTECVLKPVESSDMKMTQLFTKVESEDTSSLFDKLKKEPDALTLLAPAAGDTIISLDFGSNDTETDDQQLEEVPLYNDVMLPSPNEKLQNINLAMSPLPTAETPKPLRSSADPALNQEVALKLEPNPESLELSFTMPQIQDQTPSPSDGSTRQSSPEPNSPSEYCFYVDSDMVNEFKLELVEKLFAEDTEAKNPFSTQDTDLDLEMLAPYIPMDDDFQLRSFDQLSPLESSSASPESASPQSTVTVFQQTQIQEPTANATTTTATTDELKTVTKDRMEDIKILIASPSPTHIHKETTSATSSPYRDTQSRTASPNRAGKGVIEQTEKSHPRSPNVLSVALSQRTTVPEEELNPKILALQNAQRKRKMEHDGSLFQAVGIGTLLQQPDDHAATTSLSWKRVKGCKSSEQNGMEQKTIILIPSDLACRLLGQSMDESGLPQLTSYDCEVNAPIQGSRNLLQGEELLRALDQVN

accumulation of nuclear HIF-1α (HIF-1α [1]): inhibited in dose-dependent manner | subcellular localization of HIF-1α (HIF-1α [1]): did not affect | inhibition at 0.001 µM (HIF-1α [2]): ~30% | inhibition at 0.001 µM (HIF-1α [3]; 1 nM, read-out: downregulation of HIF-1α protein expression): ~50% | inhibitory effect on HIF-1α accumulation (western blot) (HIF-1α [3]; 1 μM): most potent inhibitory effect | inhibition at 1 µM (HIF-1α [3]; 1 μM, compared to hypoxic control, read-out: reduction of HIF-1α protein levels): 80%
Structure (SMILES): COc1ccc(-c2cn(CC3(C)C=Cc4cc([N+](=O)[O-])ccc4O3)nn2)cc1 (centres unmarked) [Compound 12, 4-(4-methoxyphenyl)-1-((2-methyl-6-nitro-2H-chromen-2-yl)methyl)-1H-1,2,3-triazole]
anti-angiogenic activity, Matrigel plug (hemoglobin content) [4]: anti-angiogenic activity was increased | VEGF-induced tube formation (HUVECs): significantly inhibited
